Assay results published in publication PMC12259270, “Sensory neuron–expressed FGF13 controls nociceptive signaling in diabetic neuropathy models” (The Journal of Clinical Investigation, 2025).
Residues, ends and D or L forms follow the SMILES beside them. *: point of attachment. Cbz = O=C(OCc1ccccc1)*; OtBu = CC(C)(C)O*

Molecular target: T1, human Nav1.7 (Homo sapiens, UniProt Q15858)
T1 construct: expressed in transfected cells; host or cells: HEK293 stably expressing human Nav1.7
Assay: Whole-cell patch-clamp, HEK293 cells stably expressing human Nav1.7 with GFP or FGF13-GFP
Format: cell-based
Details: for Time constant of repriming, Mean: Fig 1L, PW164; for Activation / Long-term inactivation, 2nd Pulse / Long-term inactivation, 3rd Pulse / Long-term inactivation, 4th Pulse / Peak Density / Steady state inactivation / Tau (τ): HEK293 Nav1.7
Method: Whole-cell patch clamp electrophysiology
HEK293-Nav1.7 cells, HEK293 stably expressing human Nav1.6 (HEK-Nav1.6), HEK293 stably expressing human Nav1.5 (HEK-Nav1.5), human hIPSC-derived sensory neurons (RealDRGTM from Anatomic Incorporated 1020F1-1M) and donor-derived DRG neurons were plated at low density on glass coverslips and processed for whole-cell patch clamp electrophysiology in voltage-clamp and/or current clamp mode. Whole-cell patch electrophysiological experiments were conducted following previously published studies (26). Current densities were obtained by dividing INa amplitude by membrane capacitance. Current –voltage relationships were generated by plotting current density as a function of the […]. Conductance (G Na) was calculated by the […]
where INa is the current amplitude at voltage Vm, and Erev is the Na+ reversal potential.
Activation curves were derived by plotting normalized GNa as a function of test potential and fitted using […]
Where GNa,Max is the maximum conductance, Va is the membrane potential of half-maximal activation, Em is the membrane voltage and k is the slope factor. For steady -state inactivation, normalized current amplitude (INa/INa,Max) at the test potential was plotted as a function of prepulse potential (Vm) and fitted using the […]
Where Vh is the potential of half-maximal inactivation, E m is the membrane voltage, and k is the slope factor.
Transient INa inactivation decay was estimated with the standard exponential equation. Inactivation time constant (tau, τ) was fitted with the following equation: […]
where I(t) is the amplitude of the current at time t and Iss is the steady-state current during a single voltage-step.
The goodness of fitting was determined by correlation coefficient (R), and the cutoff of R was set at 0.85. To observe effects on long-term inactivation (LTI), a four-step protocol was employed during which cells were subjected to four 0 mV, 20 ms depolarization pulses separated by −90 mV, 40 ms recovery intervals. To control for various cell sizes, the current densities were calculated by dividing INa peak current amplitude/membrane capacitance (Cm). To represent the fraction of channels entering into LTI, the peak INa observed during depolarization cycles 2-4 was normalized to the peak INa observed during depolarization cycle 1 (INa/INa,Cycle 1) and plotted as a function of the depolarization cycle.
The cumulative (frequency-dependent) use-dependency was determined by applying 20 pulses with a depolarization to −10 mV (50 ms duration) and 50 ms recovery intervals with a train of 20 pulses at 10 Hz from a holding potential at -70 mV. The current pulses were normalized to the first reco rded pulse and the currents at the 2nd to 20th pulses were compared. The same train was used to record use-dependency at various frequencies […]
The rate of recovery from inactivation was recorded at -80 mV with a standard repriming voltage protocol.
The cells were prepulsed to -20 mV for 20 ms to inactivate all currents, then driven back to the recovery potential (Vrec) for increasing recovery durations before the test pulse to 0 mV. The maximum pulse rate was 0.5 Hz. The […]
follows previous publications (16). The time constants were estimated from single exponential decay to time courses measured at recovery potentials ranging from -140 to -60 mV with the protocol as mentioned above.
Electrophysiological Recordings
HEK293 cells: Electrophysiological recordings in HEK293 stably expressing Nav1.7 (HEK-Nav1.7), Nav1.5 (HEK-Nav1.5) or Nav1.6 (HEK-Nav1.6) were performed at room temperature using a MultiClamp 700B or an Axopatch 200B amplifier (Molecular Devices) after incubating coverslips for 60 minutes either with 0.1% DMSO or 50 μM PW164 or ZL192 in the extracellular solution. The composition of recording solutions consisted of the […]
following salts: extracellular (mM): 140 NaCl, 3 KCl, 1 MgCl2, 1 CaCl2, 10 HEPES, 10 glucose, pH 7.3; […]
intracellular (mM): 130 CH3O3 SCs, 1 EGTA, 10 NaCl, 10 HEPES, pH 7.3. […]

T1 sequence (Q92913 1-192 partner limits assumed): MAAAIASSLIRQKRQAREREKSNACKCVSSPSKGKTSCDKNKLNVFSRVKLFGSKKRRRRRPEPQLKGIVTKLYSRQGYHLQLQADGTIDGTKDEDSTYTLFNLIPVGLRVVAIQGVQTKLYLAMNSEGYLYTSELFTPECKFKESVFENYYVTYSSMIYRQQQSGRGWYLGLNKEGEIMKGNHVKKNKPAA
T1 sequence (Q15858 1-1977 isoform Q15858-3): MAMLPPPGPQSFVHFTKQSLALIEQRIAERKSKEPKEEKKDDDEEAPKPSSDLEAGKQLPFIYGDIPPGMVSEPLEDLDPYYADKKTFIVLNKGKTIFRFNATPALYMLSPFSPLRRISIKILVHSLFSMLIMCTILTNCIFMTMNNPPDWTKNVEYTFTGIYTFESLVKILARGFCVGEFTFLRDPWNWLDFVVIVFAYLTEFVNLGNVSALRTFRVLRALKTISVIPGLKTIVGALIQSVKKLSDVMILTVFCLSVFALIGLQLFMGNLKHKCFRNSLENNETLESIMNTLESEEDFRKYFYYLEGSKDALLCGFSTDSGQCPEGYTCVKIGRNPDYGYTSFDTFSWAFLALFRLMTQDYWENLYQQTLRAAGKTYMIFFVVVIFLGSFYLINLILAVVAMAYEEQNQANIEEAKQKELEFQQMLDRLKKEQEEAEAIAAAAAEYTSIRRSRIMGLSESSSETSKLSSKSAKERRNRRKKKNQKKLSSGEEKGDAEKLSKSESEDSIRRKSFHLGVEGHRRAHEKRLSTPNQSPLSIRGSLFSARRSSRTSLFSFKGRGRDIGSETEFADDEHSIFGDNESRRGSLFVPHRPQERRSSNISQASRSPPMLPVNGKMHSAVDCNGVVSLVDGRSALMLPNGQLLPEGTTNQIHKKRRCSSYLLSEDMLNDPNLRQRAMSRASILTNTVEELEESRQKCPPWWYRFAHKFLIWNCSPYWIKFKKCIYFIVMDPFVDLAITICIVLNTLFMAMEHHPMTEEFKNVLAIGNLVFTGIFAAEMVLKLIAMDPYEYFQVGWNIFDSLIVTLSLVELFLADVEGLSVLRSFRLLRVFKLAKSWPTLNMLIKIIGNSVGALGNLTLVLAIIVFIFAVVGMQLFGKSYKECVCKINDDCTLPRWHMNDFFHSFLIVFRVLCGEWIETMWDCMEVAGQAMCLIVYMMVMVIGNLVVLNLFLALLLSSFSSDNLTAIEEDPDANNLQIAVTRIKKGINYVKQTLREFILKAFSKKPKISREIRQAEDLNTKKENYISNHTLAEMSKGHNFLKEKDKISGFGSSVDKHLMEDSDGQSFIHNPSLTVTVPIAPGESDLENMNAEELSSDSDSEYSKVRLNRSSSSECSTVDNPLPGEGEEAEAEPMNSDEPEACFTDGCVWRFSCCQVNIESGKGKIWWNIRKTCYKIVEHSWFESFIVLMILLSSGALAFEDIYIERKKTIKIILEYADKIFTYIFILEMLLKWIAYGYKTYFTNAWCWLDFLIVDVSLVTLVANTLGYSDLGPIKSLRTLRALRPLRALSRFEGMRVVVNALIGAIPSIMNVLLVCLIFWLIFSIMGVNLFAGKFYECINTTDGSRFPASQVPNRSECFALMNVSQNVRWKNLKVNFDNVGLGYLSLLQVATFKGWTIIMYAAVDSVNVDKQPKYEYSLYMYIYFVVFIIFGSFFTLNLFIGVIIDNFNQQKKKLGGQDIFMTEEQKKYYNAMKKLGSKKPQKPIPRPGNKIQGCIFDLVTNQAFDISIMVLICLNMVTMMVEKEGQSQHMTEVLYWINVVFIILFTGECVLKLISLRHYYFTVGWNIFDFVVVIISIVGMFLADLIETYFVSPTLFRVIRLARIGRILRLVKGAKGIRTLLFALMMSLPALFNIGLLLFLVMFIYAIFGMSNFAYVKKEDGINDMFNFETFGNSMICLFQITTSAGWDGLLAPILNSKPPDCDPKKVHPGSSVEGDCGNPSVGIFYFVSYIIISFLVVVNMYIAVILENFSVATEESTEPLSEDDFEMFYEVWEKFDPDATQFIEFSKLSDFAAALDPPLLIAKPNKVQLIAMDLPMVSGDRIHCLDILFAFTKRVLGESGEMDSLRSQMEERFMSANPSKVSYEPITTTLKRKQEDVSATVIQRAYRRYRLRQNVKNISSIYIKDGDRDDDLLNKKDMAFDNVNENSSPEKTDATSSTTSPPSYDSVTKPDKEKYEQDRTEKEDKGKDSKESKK

COC(=O)[C@@H](NC(=O)[C@H](CCC(=O)OC(C)(C)C)NC(=O)[C@H](CC(C)C)NC(=O)[C@@H]1CCCN1C(=O)OCc1ccccc1)C(C)C [PW164] (Cbz-PLE(OtBu)V-OMe)
Time constant of repriming, Mean (Nav1.7 + FGF13-GFP, recovery potential -100): 42.57 ms | Time constant of repriming, Mean (Nav1.7 + FGF13-GFP, recovery potential -120): 33.57 ms | Time constant of repriming, Mean (Nav1.7 + FGF13-GFP, recovery potential -140): 16.96 ms | Time constant of repriming, Mean (Nav1.7 + GFP, recovery potential -60): 57.89 ms | Time constant of repriming, Mean (Nav1.7 + GFP, recovery potential -70): 65.42 ms | Time constant of repriming, Mean (Nav1.7 + GFP, recovery potential -80): 71.67 ms | Time constant of repriming, Mean (Nav1.7 + GFP, recovery potential -90): 61.78 ms | Time constant of repriming, Mean (Nav1.7 + GFP, recovery potential -100): 47.69 ms | Time constant of repriming, Mean (Nav1.7 + GFP, recovery potential -120): 34.63 ms | Time constant of repriming, Mean (Nav1.7 + GFP, recovery potential -140): 16.6 ms | Activation (FGF13-GFP + PW164 50 μM): −19.7 ± 0.9 mV | Long-term inactivation, 2nd Pulse (FGF13-GFP + PW164 50 μM): −69.72 ± 5.21 % maximal Na+ current | Long-term inactivation, 3rd Pulse (FGF13-GFP + PW164 50 μM): −60.33 ± 5.60 % maximal Na+ current | Long-term inactivation, 4th Pulse (FGF13-GFP + PW164 50 μM): −59.34 ± 4.68 % maximal Na+ current | Peak Density (FGF13-GFP + PW164 50 μM): −26.7 ± 3.6 pA/pF | Steady state inactivation (FGF13-GFP + PW164 50 μM): −64.7 ± 2.1 mV | Tau (τ) (FGF13-GFP + PW164 50 μM): 0.80 ± 0.03 ms | Activation (FGF13A GFP (FGF13-1a) + PW164): −26.91 ± 1.25 mV | Peak Density (FGF13A GFP (FGF13-1a) + PW164): −109.1 ± 11.7 pA/pF | Steady state inactivation (FGF13A GFP (FGF13-1a) + PW164): −63.11 ± 2.14 mV | Tau (τ) (FGF13A GFP (FGF13-1a) + PW164): 1.41 ± 0.06 ms | Long-term inactivation, 2nd Pulse (FGF13A-GFP (FGF13-1a) + PW164): −47.28 ± 4.68 % maximal Na+ current | Long-term inactivation, 3rd Pulse (FGF13A-GFP (FGF13-1a) + PW164): −35.27 ± 3.04 % maximal Na+ current | Long-term inactivation, 4th Pulse (FGF13A-GFP (FGF13-1a) + PW164): −29.22 ± 4.16 % maximal Na+ current | Activation (GFP + PW164 50 μM): −26.1 ± 0.4 mV | Long-term inactivation, 2nd Pulse (GFP + PW164 50 μM): −67.94 ± 3.77 % maximal Na+ current | Long-term inactivation, 3rd Pulse (GFP + PW164 50 μM): −62.35 ± 5.35 % maximal Na+ current | Long-term inactivation, 4th Pulse (GFP + PW164 50 μM): −60.93 ± 3.90 % maximal Na+ current | Peak Density (GFP + PW164 50 μM): −69.2 ± 7.5 pA/pF | Steady state inactivation (GFP + PW164 50 μM): −83.5 ± 1.7 mV | Tau (τ) (GFP + PW164 50 μM): 1.48 ± 0.25 ms | IC50 (HEK-Nav1.7 coexpressing FGF13-GFP, Fig 1F, read-out: IC50, reversal of FGF13-induced increase in INa density): 6.74 ± 0.5 µM | Time constant (ms), Mean (Figure 4J) (Nav1.7 + FGF13-GFP, at -60, N 5): 36.71 ms | Time constant (ms), Mean (Figure 4J) (Nav1.7 + FGF13-GFP, at -70, N 5): 42.79 ms | Time constant (ms), Mean (Figure 4J) (Nav1.7 + FGF13-GFP, at -80, N 5): 44.71 ms | Time constant (ms), Mean (Figure 4J) (Nav1.7 + FGF13-GFP, at -90, N 5): 37.77 ms | Time constant (ms), Mean (Figure 4J) (Nav1.7 + FGF13-GFP, at -100, N 5): 28.49 ms | Time constant (ms), Mean (Figure 4J) (Nav1.7 + FGF13-GFP, at -120, N 5): 23.55 ms | Time constant (ms), Mean (Figure 4J) (Nav1.7 + FGF13-GFP, at -140, N 5): 14.96 ms | Time constant (ms), Mean (Figure 4J) (Nav1.7 + GFP, at -60, N 6): 50.23 ms | Time constant (ms), Mean (Figure 4J) (Nav1.7 + GFP, at -70, N 6): 52.23 ms | Time constant (ms), Mean (Figure 4J) (Nav1.7 + GFP, at -80, N 6): 56.52 ms | Time constant (ms), Mean (Figure 4J) (Nav1.7 + GFP, at -90, N 6): 45.93 ms | Time constant (ms), Mean (Figure 4J) (Nav1.7 + GFP, at -100, N 6): 35.06 ms | Time constant (ms), Mean (Figure 4J) (Nav1.7 + GFP, at -120, N 6): 27.11 ms | Time constant (ms), Mean (Figure 4J) (Nav1.7 + GFP, at -140, N 6): 15.6 ms | activity on Nav1.7 currents (Nav1.7 cells coexpressing FGF13-1a-GFP (FGF13S)): inactive
